IC50 data for 1 compound are collected here from PMC13335808 (Advanced Science, 2026).

In the assay the target is LRRK2 G2019S (Homo sapiens, UniProt Q5S007, G2019S). The experiment in a line: ADP-Glo Kinase Assay, LRRK2 G2019S. It counts as biochemical. Conditions: 120 min kinase reaction at 25 °C, 10 concentrations, read-out: IC50 (LRRK2 G2019S_ADP-Glo Assay).
Chain of LRRK2 G2019S (Q5S007 whole entry G2019S): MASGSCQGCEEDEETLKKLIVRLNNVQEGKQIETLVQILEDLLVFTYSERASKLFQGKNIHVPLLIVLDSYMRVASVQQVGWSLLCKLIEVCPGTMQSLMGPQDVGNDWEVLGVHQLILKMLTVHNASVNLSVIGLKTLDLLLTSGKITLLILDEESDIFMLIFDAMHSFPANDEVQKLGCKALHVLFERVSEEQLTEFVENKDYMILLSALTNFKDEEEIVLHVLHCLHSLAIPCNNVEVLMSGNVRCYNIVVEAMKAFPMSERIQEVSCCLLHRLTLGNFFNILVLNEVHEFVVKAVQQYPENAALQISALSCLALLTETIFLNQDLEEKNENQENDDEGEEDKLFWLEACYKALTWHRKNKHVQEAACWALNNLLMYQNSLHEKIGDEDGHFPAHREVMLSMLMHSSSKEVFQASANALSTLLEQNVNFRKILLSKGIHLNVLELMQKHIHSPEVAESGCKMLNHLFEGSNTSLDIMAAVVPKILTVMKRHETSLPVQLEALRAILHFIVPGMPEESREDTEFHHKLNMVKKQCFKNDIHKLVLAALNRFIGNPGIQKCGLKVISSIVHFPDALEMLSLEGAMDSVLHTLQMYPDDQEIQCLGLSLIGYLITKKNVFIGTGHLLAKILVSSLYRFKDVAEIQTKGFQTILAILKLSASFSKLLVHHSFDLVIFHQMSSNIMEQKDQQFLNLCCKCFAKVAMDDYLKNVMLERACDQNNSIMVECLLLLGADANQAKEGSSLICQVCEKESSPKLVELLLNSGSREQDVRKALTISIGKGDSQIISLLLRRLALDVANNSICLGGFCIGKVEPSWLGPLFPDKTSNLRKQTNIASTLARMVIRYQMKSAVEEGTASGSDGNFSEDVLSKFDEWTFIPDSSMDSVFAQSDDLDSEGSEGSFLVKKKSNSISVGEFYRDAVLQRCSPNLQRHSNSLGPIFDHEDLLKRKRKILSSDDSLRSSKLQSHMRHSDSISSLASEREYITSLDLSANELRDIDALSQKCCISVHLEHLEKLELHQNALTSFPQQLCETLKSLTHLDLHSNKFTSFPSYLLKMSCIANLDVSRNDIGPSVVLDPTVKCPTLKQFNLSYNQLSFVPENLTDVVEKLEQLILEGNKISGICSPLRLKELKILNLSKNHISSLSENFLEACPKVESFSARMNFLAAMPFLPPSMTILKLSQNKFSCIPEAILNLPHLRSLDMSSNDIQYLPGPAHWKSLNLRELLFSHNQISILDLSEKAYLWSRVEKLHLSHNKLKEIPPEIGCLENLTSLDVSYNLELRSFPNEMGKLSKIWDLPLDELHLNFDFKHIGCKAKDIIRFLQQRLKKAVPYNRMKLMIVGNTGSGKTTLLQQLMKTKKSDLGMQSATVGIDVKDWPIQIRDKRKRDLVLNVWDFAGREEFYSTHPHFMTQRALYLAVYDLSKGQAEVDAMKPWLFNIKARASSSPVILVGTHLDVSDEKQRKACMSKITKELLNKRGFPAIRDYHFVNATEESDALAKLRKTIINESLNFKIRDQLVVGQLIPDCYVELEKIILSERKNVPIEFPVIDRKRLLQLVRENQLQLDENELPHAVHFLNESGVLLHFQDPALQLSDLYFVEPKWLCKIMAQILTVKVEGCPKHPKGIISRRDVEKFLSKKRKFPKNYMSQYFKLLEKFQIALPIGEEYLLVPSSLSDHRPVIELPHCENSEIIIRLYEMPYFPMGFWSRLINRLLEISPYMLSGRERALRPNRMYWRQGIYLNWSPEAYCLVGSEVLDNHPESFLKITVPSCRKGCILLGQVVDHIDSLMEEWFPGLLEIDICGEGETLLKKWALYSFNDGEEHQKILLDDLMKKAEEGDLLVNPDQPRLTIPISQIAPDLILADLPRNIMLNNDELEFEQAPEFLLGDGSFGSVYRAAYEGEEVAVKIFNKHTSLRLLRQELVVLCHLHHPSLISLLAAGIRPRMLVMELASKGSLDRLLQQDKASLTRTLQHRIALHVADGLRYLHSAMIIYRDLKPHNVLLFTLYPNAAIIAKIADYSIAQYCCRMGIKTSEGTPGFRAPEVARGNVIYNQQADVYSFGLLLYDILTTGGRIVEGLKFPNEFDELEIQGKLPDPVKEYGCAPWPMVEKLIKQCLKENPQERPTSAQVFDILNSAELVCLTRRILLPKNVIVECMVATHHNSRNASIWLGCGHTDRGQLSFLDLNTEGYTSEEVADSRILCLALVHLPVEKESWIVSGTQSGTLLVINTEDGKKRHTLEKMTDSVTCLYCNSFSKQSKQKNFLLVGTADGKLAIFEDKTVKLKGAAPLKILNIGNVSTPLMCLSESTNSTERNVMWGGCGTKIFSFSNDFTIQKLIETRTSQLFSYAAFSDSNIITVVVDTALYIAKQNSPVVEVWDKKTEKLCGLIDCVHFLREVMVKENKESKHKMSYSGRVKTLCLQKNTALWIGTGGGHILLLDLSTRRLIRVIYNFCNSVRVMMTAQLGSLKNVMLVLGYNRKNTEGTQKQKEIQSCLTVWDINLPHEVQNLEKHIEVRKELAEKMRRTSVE

Experimental: Kinase inhibition assays were performed using the ADP-Glo^TM Kinase Assay (Promega) in 384-well format. A 2× ATP/substrate solution and a 2× kinase solution was prepared in kinase reaction buffer. Compounds were dispensed into the assay plates (100 nL per well) using an Echo 655 acoustic dispenser. Subsequently, 5 μL of the 2× kinase solutions were added to each well, followed by centrifugation at 1000 rpm for 1 min and incubation at 25 °C for 10 min. The kinase reactions were initiated by the addition of 5 μL of the 2× ATP/substrate solution.
Following the kinase reaction, 5 μL of ADP-Glo reagent was added to each well. Plates were centrifuged at 1000 rpm for 1 min and incubated at 25 °C for 60 min to terminate the reaction and deplete unconsumed ATP. […] Luminescence signals were recorded using a BMG plate reader.
The percentage inhibition (inhibition%) was calculated as: […]
IC50 values were determined by nonlinear regression of the inhibition% versus the logarithm of compound concentrations using a four-parameter sigmoidal dose–response model (variable slope) in GraphPad Prism 10.0. […]
Ten different concentrations were tested for each compound. […] Residual kinase activity was determined based on luminescence readouts, and the data were normalized to vehicle (100% activity) and complete inhibition controls (0% activity). […]

As to `COc1cc(C(=O)N2CCC(N3CCN(C)CC3)CC2)ccc1Nc1ncc2c(n1)N(C)c1ccccc1C(=O)N2C` [LRRK2-IN-1], the IC50 was 5.25 nM.

One may read the IC50 as the concentration needed to halve the response being measured.
